In patent US10010560B2, “Small molecule HSP70 inhibitors” (THE TRUSTEES OF THE UNIVERSITY OF PENNSYLVANIA, priority 2014, dated 2018):
Several values for one entry are separate records, joined by “and”; a condition that tells them apart may be missing. Identical values can stand only once.

How the values were obtained:
[1] = system: melanoma tumor cell line WM989; assay: Combination with BRAF inhibitor Vemurafenib, viability; type: cell-based, human
From the text: FIG. 6 is a line graph illustrating that PET-16 synergizes with the BRAF inhibitor Vemurafenib to reduce the viability of the melanoma tumor cell line WM989 (▪). WM989 cells treated singularly with Vemurafenib are depicted by (●). No synergy was detected between Vemurafenib and PES-Cl.

ADP-HSP70 (WT, aa 1-641) = target: T1, ADP-HSP70 (WT, aa 1-641) (Homo sapiens, UniProt P0DMV8, E110D); assay: ITC binding to ADP-bound full-length HSP70; conditions: ITC, wild-type full-length ADP-bound HSP70
T1 construct: Full-length recombinant proteins of HSP70 (aa 1-641) as well as DnaK (aa 1-638); His6 (N); made in house; host or cells: E. coli BL21 Star (DE3)
T1 sequence (P0DMV8 whole entry E110D, the tested form may be a part): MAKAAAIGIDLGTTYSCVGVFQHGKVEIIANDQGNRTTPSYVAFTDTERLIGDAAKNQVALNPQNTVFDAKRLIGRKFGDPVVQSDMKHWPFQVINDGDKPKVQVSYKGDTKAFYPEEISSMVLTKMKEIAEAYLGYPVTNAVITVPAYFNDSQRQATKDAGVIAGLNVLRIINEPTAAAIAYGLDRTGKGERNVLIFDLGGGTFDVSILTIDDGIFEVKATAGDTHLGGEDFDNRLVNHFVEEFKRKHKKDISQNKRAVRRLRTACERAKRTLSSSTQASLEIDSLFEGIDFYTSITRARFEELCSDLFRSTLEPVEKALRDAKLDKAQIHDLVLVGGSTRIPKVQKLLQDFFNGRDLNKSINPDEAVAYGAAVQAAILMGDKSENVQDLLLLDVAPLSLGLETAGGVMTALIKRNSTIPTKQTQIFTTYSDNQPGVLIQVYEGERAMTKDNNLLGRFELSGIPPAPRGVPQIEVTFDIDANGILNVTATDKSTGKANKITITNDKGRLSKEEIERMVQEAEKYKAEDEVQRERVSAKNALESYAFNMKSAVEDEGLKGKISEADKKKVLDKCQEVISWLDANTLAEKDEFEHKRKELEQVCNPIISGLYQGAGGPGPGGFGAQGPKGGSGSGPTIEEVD
From the text: The human stress-inducible HSP70 (residues 1-641 or 386-616 of SEQ ID NO: 2) and E. coli DnaK (residues 1-638, 389-607, or 393-507 of SEQ ID NO: 4) were cloned into the pET25 vector (EMD Millipore Chemicals, Inc., Billerica, Mass., USA) between the NdeI and XhoI restriction sites. The full-length HSP70 and DnaK mutants were constructed by PCR-based site-directed mutagenesis using the QuikChange™ Site-Directed Mutagenesis Kit (Agilent Technologies, Inc., Santa Clara, Calif., USA). All plasmid inserts were verified by DNA sequencing. All HSP70 and DnaK variants were produced with a N-terminal His6-tag in the E. coli BL21 Star (DE3) strain (Invitrogen catalog number C6010-03). The resulting strains were grown at 37° C. in LB medium containing 50 μg/mL of carbenicillin (Sigma-Aldrich Co., St. Louis, Mo., USA). At an OD600 about 0.3 to about 0.5, protein expression was induced with 0.5 mM isopropyl-β-D-thiogalactopyranoside (IPTG), and cells were subsequently grown at 25° C. for about 16 h. Cells were collected by centrifugation and resuspended in the Bugbuster® Master Mix (EMD Millipore Chemicals catalog number 71456-4), supplemented with protease inhibitors, 1 mM diethiothreitol (DTT) and 20 mM imidazole. The His6-tagged fusion proteins were isolated on Ni^2+-chelating resins (Ni-NTA Superflow, Qiagen catalog number 30410) by standard procedures. When necessary, size-exclusion chromatography on a Superdex® 200 or a Superose® 6 10/300 GL columns (GE Healthcare) analytical column pre-equilibrated with 1× Dulbecco's Phosphate Buffered Saline (DPBS—Invitrogen 14190-136), 1 mM Tris-HCl (pH 7.4) or 10 mM Tris-HCl (pH 7) was used as the final purification step. The purified DnaK proteins were dialyzed thoroughly against 1× DPBS with 5 mM DTT at 4° C., for crystallization trials involving the small molecule inhibitor PET-16. For isothermal titration calorimetry studies, all HSP70 and DnaK variants were dialyzed extensively against the buffers as noted below under the section entitled “Isothermal Titration calorimetry Studies”. The dialyzed proteins were subsequently microcentrifugated at 15,000×g for 5 min at 4° C. and aliquots of the soluble proteins were stored at −80° C.
(§1) All ITC experiments were performed using a MicroCal VP-ITC isothermal titration calorimeter (MicroCal). Both full-length HSP70 and DnaK proteins and DnaK (aa 393-507) proteins were prepared in 1 mM Tris-HCl (pH 7.4) buffer containing 3% dimethylsulfoxide (DMSO). The HSP70 (aa 386-616) protein was prepared in buffer containing 3% DMSO and 10 mM Tris-HCl, pH 7. The syringe was loaded with purified protein in either 1 mM Tris-HCl (pH 7.4) buffer containing 3% DMSO or 10 mM Tris-HCl (pH 7) buffer containing 3% DMSO. The sample cell of the calorimeter was loaded with PES, PET-16 or NRLLLTG (SEQ ID NO: 7) prepared in the same buffer. All solutions were degassed for 5 min.
The titrations involving the full-length purified proteins were performed at 25° C. with injection volumes of 12 μL and a spacing of 300 s. The titrations involving the purified HSP70 (aa 386-616) and DnaK (aa 393-507) were performed at 42° C. with injection volumes of 12 μL and a spacing of 300 s. Heat from the pre-injection was not used during fitting. The data were fit using a one-site binding model available in the Origin® ITC data analysis software (MicroCal Origin® V5.0, MicroCal Software, Northampton, Mass.). Error values obtained from the MicroCal Origin® V5.0 software were averaged and reported. […]

ATP-HSP70 (WT) = target: T2, ATP-HSP70 (WT) (Homo sapiens, UniProt P0DMV8, E110D); assay: ITC binding to ATP-bound full-length HSP70; conditions: wild-type full-length ATP-bound HSP70
T2 construct: Full-length recombinant proteins of HSP70 (aa 1-641) as well as DnaK (aa 1-638); His6 (N); made in house; host or cells: E. coli BL21 Star (DE3)
T2 sequence (P0DMV8 whole entry E110D, the tested form may be a part): as above
From the text: The human stress-inducible HSP70 (residues 1-641 or 386-616 of SEQ ID NO: 2) and E. coli DnaK (residues 1-638, 389-607, or 393-507 of SEQ ID NO: 4) were cloned into the pET25 vector (EMD Millipore Chemicals, Inc., Billerica, Mass., USA) between the NdeI and XhoI restriction sites. The full-length HSP70 and DnaK mutants were constructed by PCR-based site-directed mutagenesis using the QuikChange™ Site-Directed Mutagenesis Kit (Agilent Technologies, Inc., Santa Clara, Calif., USA). All plasmid inserts were verified by DNA sequencing. All HSP70 and DnaK variants were produced with a N-terminal His6-tag in the E. coli BL21 Star (DE3) strain (Invitrogen catalog number C6010-03). The resulting strains were grown at 37° C. in LB medium containing 50 μg/mL of carbenicillin (Sigma-Aldrich Co., St. Louis, Mo., USA). At an OD600 about 0.3 to about 0.5, protein expression was induced with 0.5 mM isopropyl-β-D-thiogalactopyranoside (IPTG), and cells were subsequently grown at 25° C. for about 16 h. Cells were collected by centrifugation and resuspended in the Bugbuster® Master Mix (EMD Millipore Chemicals catalog number 71456-4), supplemented with protease inhibitors, 1 mM diethiothreitol (DTT) and 20 mM imidazole. The His6-tagged fusion proteins were isolated on Ni^2+-chelating resins (Ni-NTA Superflow, Qiagen catalog number 30410) by standard procedures. When necessary, size-exclusion chromatography on a Superdex® 200 or a Superose® 6 10/300 GL columns (GE Healthcare) analytical column pre-equilibrated with 1× Dulbecco's Phosphate Buffered Saline (DPBS—Invitrogen 14190-136), 1 mM Tris-HCl (pH 7.4) or 10 mM Tris-HCl (pH 7) was used as the final purification step. The purified DnaK proteins were dialyzed thoroughly against 1× DPBS with 5 mM DTT at 4° C., for crystallization trials involving the small molecule inhibitor PET-16. For isothermal titration calorimetry studies, all HSP70 and DnaK variants were dialyzed extensively against the buffers as noted below under the section entitled “Isothermal Titration calorimetry Studies”. […]

HSP70 (aa 386-616) = target: T3, HSP70 (aa 386-616) (Homo sapiens, UniProt P0DMV8); assay: ITC binding to C-terminal domain of HSP70; conditions: in words
T3 construct: His6 (N); made in house; host or cells: E. coli BL21 Star (DE3)
T3 sequence (P0DMV8 386-616): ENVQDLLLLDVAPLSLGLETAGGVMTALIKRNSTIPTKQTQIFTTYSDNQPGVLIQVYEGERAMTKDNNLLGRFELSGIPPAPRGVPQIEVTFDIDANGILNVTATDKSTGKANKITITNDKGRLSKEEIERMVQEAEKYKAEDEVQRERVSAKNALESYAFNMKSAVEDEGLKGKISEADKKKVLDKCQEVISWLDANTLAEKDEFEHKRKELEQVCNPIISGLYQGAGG
From the text: The human stress-inducible HSP70 (residues 1-641 or 386-616 of SEQ ID NO: 2) and E. coli DnaK (residues 1-638, 389-607, or 393-507 of SEQ ID NO: 4) were cloned into the pET25 vector (EMD Millipore Chemicals, Inc., Billerica, Mass., USA) between the NdeI and XhoI restriction sites. The full-length HSP70 and DnaK mutants were constructed by PCR-based site-directed mutagenesis using the QuikChange™ Site-Directed Mutagenesis Kit (Agilent Technologies, Inc., Santa Clara, Calif., USA). All plasmid inserts were verified by DNA sequencing. All HSP70 and DnaK variants were produced with a N-terminal His6-tag in the E. coli BL21 Star (DE3) strain (Invitrogen catalog number C6010-03). The resulting strains were grown at 37° C. in LB medium containing 50 μg/mL of carbenicillin (Sigma-Aldrich Co., St. Louis, Mo., USA). At an OD600 about 0.3 to about 0.5, protein expression was induced with 0.5 mM isopropyl-β-D-thiogalactopyranoside (IPTG), and cells were subsequently grown at 25° C. for about 16 h. Cells were collected by centrifugation and resuspended in the Bugbuster® Master Mix (EMD Millipore Chemicals catalog number 71456-4), supplemented with protease inhibitors, 1 mM diethiothreitol (DTT) and 20 mM imidazole. The His6-tagged fusion proteins were isolated on Ni^2+-chelating resins (Ni-NTA Superflow, Qiagen catalog number 30410) by standard procedures. […]

DnaK SBD = target: T4, DnaK SBD (Escherichia coli, UniProt P0A6Y8); assay: ITC binding to DnaK SBD; design: species or system E. coli; conditions: in words
T4 construct: The titrations involving the purified HSP70 (aa 386-616) and DnaK (aa 393-507) were performed at 42° C; His6 (N); made in house; host or cells: E. coli BL21 Star (DE3)
T4 sequence (P0A6Y8 393-507): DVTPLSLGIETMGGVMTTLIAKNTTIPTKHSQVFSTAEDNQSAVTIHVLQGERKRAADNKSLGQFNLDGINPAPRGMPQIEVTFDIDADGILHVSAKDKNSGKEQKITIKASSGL
Procedure: as §1
The titrations involving the full-length purified proteins were performed at 25° C. with injection volumes of 12 μL and a spacing of 300 s. The titrations involving the purified HSP70 (aa 386-616) and DnaK (aa 393-507) were performed at 42° C. with injection volumes of 12 μL and a spacing of 300 s. Heat from the pre-injection was not used during fitting. The data were fit using a one-site binding model available in the Origin® ITC data analysis software (MicroCal Origin® V5.0, MicroCal Software, Northampton, Mass.). Error values obtained from the MicroCal Origin® V5.0 software were averaged and reported.

tumor cells = assay: Cytotoxic effect on tumor cells; type: cell-based; conditions: in words
From the text: FIGS. 1A to 1G provide the PET-16 and analogs thereof. FIGS. 1A-1C provide the chemical structures of PES, Biotin-PES, and PES-Cl, respectively. The chemical names and the major functional groups are indicated. […] The chemical names are indicated. FIGS. 1E-1G are the chemical structures of PET-16, PET-3C and PET-DR, respectively. The chemical names and the major functional groups are indicated.

E. coli DH5α = assay: Growth of E. coli DH5α at 43° C.; type: cell-based; conditions: 6 h at 43° C.
Procedure: FIGS. 2A-2D illustrate the cytotoxicity of PET-16 to human tumor cells and its inhibition on E. coli growth. FIG. 2A is a line graph with data obtained from MTT assays of human melanoma cell lines treated with the indicated concentrations of PES or PET-16 for 72 h. The corresponding cell survival is normalized to vehicle (DMSO) treatment. Average and standard deviation (s.d.) from three independent experiments are shown. FIG. 2B are bar graphs of human melanoma (A875) cells and nontransformed human (IMR90) fibroblasts that were treated with DMSO, 10 μM PES or 10 μM PET-16 for 24 h. […] FIG. 2C is a line graph illustrating the growth of E. coli DH5α treated with different concentrations of PES or PET-16 for 6 h at 43° C. Error bars represent the s.d. of four independent experiments. FIG. 2D is a bar graph illustrating the growth of E. coli DH5α treated with DMSO, 30 μM PET-16 or 30 μM TPP for 6 h at 43° C. Error bars represent the s.d. of four independent experiments.
FIGS. 9A-9H illustrate that PET-16 binds directly to ADP-bound HSP70 and is cytotoxic to human tumor cells. FIGS. 9A-9C are ITC assays of the interaction of PET-3C with purified human HSP70-ADP (A), human HSP70-ATP (B) and DnaK-ADP (C) proteins. The data are representative of three independent experiments. FIG. 9D is a line graph of an MTT assay of the human melanoma cell line 1205 Lu treated with the indicated concentrations of PET-16 (---) or PET-3C (-) for 72 h. The corresponding cell survival is normalized to the DMSO-treatment. Average and standard deviation (s.d.) from three independent experiments are shown. FIG. 9E is a line graph illustrating the growth of E. coli DH5α strain treated with different concentrations of PET-16 (black) or PET-3C (gray) for 6 h at 43° C. Error bars represent the s.d. of four independent experiments. FIG. 9F is a bar graph illustrating the growth of E. coli DH5α treated with DMSO, 30 μM PET-16, 30 μM PET-3C or 30 μM TPP for 6 h at 43° C. Error bars represent the s.d. of four independent experiments. […]

## 2-(3-chlorophenyl) ethynesulfonamide [PES-Cl, reference compound]
[1]
  synergy with PLX4032 (Vemurafenib): did not synergize

## CC(C)C[C@H](NC(=O)[C@H](CC(C)C)NC(=O)[C@H](CCCNC(=N)N)NC(=O)[C@@H](N)CC(N)=O)C(=O)N[C@@H](CC(C)C)C(=O)N[C@H](C(=O)NCC(=O)O)[C@@H](C)O [NRLLLTG, reference compound]
ADP-HSP70 (WT, aa 1-641)
  Kd: ~10 µM and 10 µM
ATP-HSP70 (WT)
  Kd: 1250 ± 15 µM

## c1ccc(P(c2ccccc2)c2ccccc2)cc1 [TPP, triphenylphosphine]
HSP70 (aa 386-616)
  binding to HSP70 SBD: does not bind
DnaK SBD
  binding to DnaK SBD: does not bind
Tumor cells
  cytotoxicity for tumor cells: little discernible effect
E. coli DH5α
  effect on growth of E. coli: no negative effect
